One assay has as its target Dipeptidyl peptidase 8 (Homo sapiens, UniProt Q6V1X1). Briefly: Inhibition of full length human DPP8 expressed in baculovirus infected sf9 cells using Ala-Pro-p-nitroanilide as substrate preincubated for 15 mins followed by substrate addition measured for 10 mins by […].
Assay [1] is described as follows: Inhibition of bovine testes DPP9 using Ala-Pro-p-nitroanilide as substrate preincubated for 15 mins followed by substrate addition measured for 10 mins by […]. Also on record: species or system Bos taurus.
The next assay concerns the target Dipeptidyl peptidase 2 (Homo sapiens, UniProt Q9UHL4). Briefly: Inhibition of DPP2 in human seminal plasma using Lys-Ala-p-nitroanilide as substrate preincubated for 15 mins followed by substrate addition measured for 10 mins by […]. Format: cell-free.
Another assay deals with T1, Prolyl endopeptidase FAP (Mus musculus, UniProt P97321).
T1 sequence (P97321 whole entry): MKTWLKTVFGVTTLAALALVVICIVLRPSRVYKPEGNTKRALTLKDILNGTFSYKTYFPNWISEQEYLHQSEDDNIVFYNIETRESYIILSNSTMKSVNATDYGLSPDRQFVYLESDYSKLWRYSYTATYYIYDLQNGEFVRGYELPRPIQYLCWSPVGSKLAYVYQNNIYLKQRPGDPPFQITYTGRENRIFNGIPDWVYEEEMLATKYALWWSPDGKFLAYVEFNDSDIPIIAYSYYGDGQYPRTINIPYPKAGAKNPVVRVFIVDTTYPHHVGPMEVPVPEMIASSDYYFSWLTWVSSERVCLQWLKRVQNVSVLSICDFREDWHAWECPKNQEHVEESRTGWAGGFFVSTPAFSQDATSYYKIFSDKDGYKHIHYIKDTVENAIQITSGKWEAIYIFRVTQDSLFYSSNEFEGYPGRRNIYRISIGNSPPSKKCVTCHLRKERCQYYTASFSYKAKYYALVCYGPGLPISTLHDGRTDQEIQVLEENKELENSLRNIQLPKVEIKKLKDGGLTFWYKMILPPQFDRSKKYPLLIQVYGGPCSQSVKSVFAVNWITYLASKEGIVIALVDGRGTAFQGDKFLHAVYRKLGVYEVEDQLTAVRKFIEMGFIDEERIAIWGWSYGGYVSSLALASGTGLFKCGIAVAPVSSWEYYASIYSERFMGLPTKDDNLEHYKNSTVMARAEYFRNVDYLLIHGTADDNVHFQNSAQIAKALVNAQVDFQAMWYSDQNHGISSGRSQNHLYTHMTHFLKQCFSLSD
Briefly: Inhibition of BALB/c mouse 5'-His6-tagged 3'-FLAG-tagged FAP fused with ECD expressed in HEK293 cells using Ala-Pro-p-nitroanilide as substrate preincubated for 15 mins followed by substrate addition measured for 10 mins by […]. In kind it is cell-based.

For another assay, the target named is Dipeptidyl peptidase 4 (Homo sapiens, UniProt P27487). Briefly: Inhibition of DPP4 in human seminal plasma using Gly-Pro-p-nitroanilide as substrate preincubated for 15 mins followed by substrate addition measured for 10 mins by […]. Format: cell-free.

Bounds are passed on as bounds.

Sequence of Dipeptidyl peptidase 8 (Q6V1X1 whole entry): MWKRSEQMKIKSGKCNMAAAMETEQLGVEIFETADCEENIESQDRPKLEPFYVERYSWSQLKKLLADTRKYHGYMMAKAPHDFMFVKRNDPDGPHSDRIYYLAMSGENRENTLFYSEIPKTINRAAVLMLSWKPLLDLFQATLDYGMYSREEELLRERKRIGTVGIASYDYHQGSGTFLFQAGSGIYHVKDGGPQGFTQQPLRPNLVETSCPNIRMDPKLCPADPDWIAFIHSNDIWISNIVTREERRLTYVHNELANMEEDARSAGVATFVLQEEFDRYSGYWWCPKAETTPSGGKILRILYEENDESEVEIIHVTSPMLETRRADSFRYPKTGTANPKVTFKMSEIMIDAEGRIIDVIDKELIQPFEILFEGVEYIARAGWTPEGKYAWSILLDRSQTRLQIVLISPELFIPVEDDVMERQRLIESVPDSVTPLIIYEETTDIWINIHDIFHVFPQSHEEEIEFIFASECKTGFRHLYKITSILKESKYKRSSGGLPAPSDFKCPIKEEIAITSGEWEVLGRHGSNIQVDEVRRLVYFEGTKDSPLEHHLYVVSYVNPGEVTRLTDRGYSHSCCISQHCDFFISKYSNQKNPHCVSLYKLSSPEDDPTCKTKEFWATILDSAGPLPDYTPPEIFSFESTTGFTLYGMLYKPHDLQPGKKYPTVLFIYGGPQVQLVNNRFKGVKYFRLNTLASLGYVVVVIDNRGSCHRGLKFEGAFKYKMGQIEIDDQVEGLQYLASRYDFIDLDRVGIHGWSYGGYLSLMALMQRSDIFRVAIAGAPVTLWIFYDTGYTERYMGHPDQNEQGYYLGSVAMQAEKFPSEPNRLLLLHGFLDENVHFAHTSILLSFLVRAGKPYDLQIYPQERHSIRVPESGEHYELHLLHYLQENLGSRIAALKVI
Sequence of Dipeptidyl peptidase 4 (P27487 whole entry): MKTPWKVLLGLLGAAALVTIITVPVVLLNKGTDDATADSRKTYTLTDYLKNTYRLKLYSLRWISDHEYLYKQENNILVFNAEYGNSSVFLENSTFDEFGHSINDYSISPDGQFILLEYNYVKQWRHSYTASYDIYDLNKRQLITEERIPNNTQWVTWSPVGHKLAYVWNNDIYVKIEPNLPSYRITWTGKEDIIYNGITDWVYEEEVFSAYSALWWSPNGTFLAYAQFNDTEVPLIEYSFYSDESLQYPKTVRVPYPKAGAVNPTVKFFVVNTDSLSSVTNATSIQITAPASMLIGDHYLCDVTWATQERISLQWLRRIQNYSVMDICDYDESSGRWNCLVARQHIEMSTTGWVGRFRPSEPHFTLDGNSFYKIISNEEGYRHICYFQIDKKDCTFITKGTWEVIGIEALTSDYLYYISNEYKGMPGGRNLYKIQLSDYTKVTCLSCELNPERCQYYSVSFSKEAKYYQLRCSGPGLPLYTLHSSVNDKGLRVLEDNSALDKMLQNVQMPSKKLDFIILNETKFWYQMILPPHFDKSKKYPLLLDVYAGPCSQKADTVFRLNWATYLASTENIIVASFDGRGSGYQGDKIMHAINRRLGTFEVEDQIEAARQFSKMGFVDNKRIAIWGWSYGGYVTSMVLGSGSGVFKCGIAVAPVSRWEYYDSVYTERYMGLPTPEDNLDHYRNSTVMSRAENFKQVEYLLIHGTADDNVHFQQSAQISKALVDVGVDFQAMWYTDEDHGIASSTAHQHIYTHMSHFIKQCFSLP

With `CC[C@@H](C)[C@H](N)C(=O)N1Cc2nc(C)sc2C1`, the IC50 is above 25 µM against Dipeptidyl peptidase 8, above 100 µM in assay [1] and above 100 µM on Dipeptidyl peptidase 2.
Turning to `CC[C@@H](C)[C@H](N)C(=O)N1Cc2ccccc2C1`, at Prolyl endopeptidase FAP, the IC50 is above 100 µM.
Regarding `CCC1CCN(C(=O)[C@@H](N)CC(=O)N2CCN(C(c3ccc(F)cc3)c3ccc(F)cc3)CC2)C1` (stereo partly specified), the IC50 in assay [1] was 0.36 µM; on Prolyl endopeptidase FAP it was above 100 µM.
The like results for `CC1CCN(C(=O)[C@@H](N)CC(=O)N2CCN(C(c3ccc(F)cc3)c3ccc(F)cc3)CC2)C1` (stereo partly specified) were, in that order, 0.17 µM and above 100 µM.
With `N#C[C@@H]1[C@@H]2C[C@@H]2CN1C(=O)[C@@H](N)CC(=O)N1CCN(C(c2ccc(F)cc2)c2ccc(F)cc2)CC1`, in assay [1], half-maximal inhibition (IC50) was put at 0.0218 µM.
Turning to `N[C@@H](CC(=O)N1CCN(C(c2ccc(F)cc2)c2ccc(F)cc2)CC1)C(=O)N1Cc2cn[nH]c2C1`, the results for the half-maximal inhibitory concentration (IC50) (against Dipeptidyl peptidase 8; in assay [1]; at Dipeptidyl peptidase 2) were above 100 µM, above 25 µM and above 100 µM, respectively.
Turning to `Cc1nc2c(s1)CN(C(=O)[C@@H](N)CC(=O)N1CCN(C(c3ccc(F)cc3)c3ccc(F)cc3)CC1)C2`, the half-maximal inhibitory concentration (IC50) is 30 µM in assay [1] and above 100 µM on Dipeptidyl peptidase 2.
Take `N[C@@H](CC(=O)N1CCN(C(c2ccc(F)cc2)c2ccc(F)cc2)CC1)C(=O)N1CCC(C(F)(F)F)C1` (stereo partly specified): the IC50 in assay [1] was 3.5 µM.
Compound `N[C@@H](CC(=O)N1CCN(C(c2ccc(F)cc2)c2ccc(F)cc2)CC1)C(=O)N1Cc2conc2C1` displayed a concentration for half-maximal inhibition (IC50) in assay [1] of 2.4 µM.
Consider `CC[C@@H](C)[C@H](N)C(=O)N1Cc2cn[nH]c2C1`, for which the half-maximal inhibitory concentration (IC50) (on Dipeptidyl peptidase 8; in assay [1]; on Dipeptidyl peptidase 2) was above 100 µM in each case.
Regarding `CC[C@@H](C)[C@H](N)C(=O)N1C[C@H]2C[C@H]2[C@H]1C#N`, the IC50 in assay [1] was 2.84 µM; at Dipeptidyl peptidase 2 it was above 100 µM.
Take `C=C1CCN(C(=O)[C@@H](N)[C@H](C)CC)C1`: the figures for the IC50 (on Dipeptidyl peptidase 4; in assay [1]; against Dipeptidyl peptidase 2) were above 50 µM, 16 µM and above 100 µM, respectively.
With `CC[C@@H](C)[C@H](N)C(=O)N1Cc2conc2C1`, the IC50 in assay [1] is 42 µM.
On to `CCC1CCN(C(=O)[C@@H](N)[C@H](C)CC)C1` (stereo partly specified), for which it took 5.7 µM to reach half-maximal inhibition in assay [1] (IC50).
For `C=C1CCN(C(=O)[C@@H](N)CC(=O)N2CCN(C(c3ccc(F)cc3)c3ccc(F)cc3)CC2)C1`, the IC50 was 0.41 µM in assay [1] and above 100 µM at Dipeptidyl peptidase 2.
In assay [1], `CC[C@@H](C)[C@H](N)C(=O)N1CCC(C)C1` (stereo partly specified) showed a half-inhibitory concentration (IC50) of 4.7 µM.
`N[C@@H](CC(=O)N1CCN(C(c2ccc(F)cc2)c2ccc(F)cc2)CC1)C(=O)N1Cc2ccccc2C1`: the IC50 in assay [1] was 0.084 µM; against Prolyl endopeptidase FAP, above 100 µM.
For the compound `N#C[C@@H]1C[C@H](N=[N+]=[N-])CN1C(=O)[C@@H](N)CC(=O)N1CCN(C(c2ccc(F)cc2)c2ccc(F)cc2)CC1`, the IC50 in assay [1] is 0.23 µM; against Dipeptidyl peptidase 2 it was above 25 µM.
On to `C[C@H]1C[C@@H](C#N)N(C(=O)[C@@H](N)CC(=O)N2CCN(C(c3ccc(F)cc3)c3ccc(F)cc3)CC2)C1`, for which the half-inhibitory concentration (IC50) in assay [1] was 0.012 µM.
In turn, `C=C1C[C@@H](C#N)N(C(=O)[C@@H](N)CC(=O)N2CCN(C(c3ccc(F)cc3)c3ccc(F)cc3)CC2)C1` gave an IC50 in assay [1] of 0.083 µM.
As to `CC[C@@H](C)[C@H](N)C(=O)N1C[C@@H](N=[N+]=[N-])C[C@H]1C#N`, the half-maximal inhibitory concentration (IC50) against Prolyl endopeptidase FAP was above 100 µM.

In general, IC50 refers to the concentration at which inhibition is half-maximal. Higher therefore signals weaker potency in that assay.

The record behind these values is ChEMBL document CHEMBL3797179, “Probing for improved selectivity with dipeptide-derived inhibitors of dipeptidyl peptidases 8 and 9: the impact of P1-variation” (Medchemcomm, 2016).
